Consider two compounds from patent publication US20230416330A1, “Optimized GIP Peptide Analogues” (Antag Therapeutics ApS, priority 2019, published 2023).

Series [1] in a line: Solubility by visual inspection of peptide solutions. It counts as physicochemical. In a few lines: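 Solubility scored by eye: clear, colorless appearance after gentle mixing. Samples prepared at 1, 5, 7.5 or 15 mg/ml in either pH 7.4 water (NaOH-adjusted) or 50 mM sodium phosphate buffer, pH 7.4.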
The next series deals with T1, human GIP receptor (Homo sapiens, UniProt P48546).
T1 construct: host or cells: HEK-293 cells, transient transfection (Lipofectamine 2000), cDNA in pCMV-Script vector
T1 sequence (P48546 22-466): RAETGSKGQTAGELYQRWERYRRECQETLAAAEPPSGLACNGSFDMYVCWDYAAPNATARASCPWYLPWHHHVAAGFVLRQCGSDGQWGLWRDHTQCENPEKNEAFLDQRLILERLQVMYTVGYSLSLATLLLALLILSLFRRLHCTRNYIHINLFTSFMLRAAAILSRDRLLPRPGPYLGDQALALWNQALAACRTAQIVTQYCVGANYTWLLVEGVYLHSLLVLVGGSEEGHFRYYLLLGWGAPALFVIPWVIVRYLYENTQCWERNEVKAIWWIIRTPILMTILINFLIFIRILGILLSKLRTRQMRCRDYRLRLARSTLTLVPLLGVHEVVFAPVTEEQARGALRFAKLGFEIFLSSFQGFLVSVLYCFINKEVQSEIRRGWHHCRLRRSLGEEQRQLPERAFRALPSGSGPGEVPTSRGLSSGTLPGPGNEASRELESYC
Description: cAMP assay Alternative 2 (Gaddum assay), antagonist potency pKb. Type of series: cell-based. The method, then:
HEK293 cells were cultured in 10% CO2 and 37° C. in Dulbecco's modified Eagle's medium supplemented with 10% fetal bovine serum, 2 mM glutamine, 180 units/ml penicillin, and 45 µg/ml streptomycin. Transient transfection with hGIPR for the CisBio assay from Table 2C was performed by using Lipofectamine 2000.
Antagonist potency (pKb) was estimated in a functional setting. The estimated pKb values were calculated from the shifts of the agonist-concentration-response curves in the presence of a single dose of GIP peptide antagonists using the Gaddum equation: pKb=log(DR-1)-log(B), where DR (EC50′/EC50) is the dose ratio calculated from EC50 of GIP1-42 obtained in the presence and absence (EC50) of antagonist, and B is the antagonist concentration used.
The in vitro functional assessment of compounds towards human GIP receptor was determined in HEK-293 cells transiently expressing the receptor. On the day of the assay, cells were resuspended in HBSS buffer (Gibco, 14025-50) supplemented with […] (Gibco, 15630-106), 0.1% Pluronic F-68 (Gibco, 24040-032) and 0.1% casein (Sigma, C4765), and plated in 384-well plates at a density of 3500 cells/well. The GIP peptide analogues of the present disclosure were diluted in HBSS buffer supplemented with 20 mM HEPES, 0.1% pluronic, 0.1% casein and 500 uM IBMX. […] Increasing dose of agonist (GIP1-42) was subsequently added to cells and incubated for additionally 30 min at 37° C. The intracellular cAMP was quantitatively determined using the CisBio cAMP Dynamic 2 HTRF Assay Kit. The assay is based on a competition between native cAMP produced by cells and cAMP labeled with the dye d2 for binding to a cryptate labeled antibody. The specific signal (i.e. energy transfer signal) is inversely proportional to the concentration of cAMP in the sample.
The cAMP-d2 conjugate and the antibody anti-cAMP-Cryptate, both diluted in lysis buffer provided in the kit, were added to the cells according to the manufacturer's protocol. The resulting competitive assay was incubated for 60 minutes at room temperature, and the signal was detected by using a PerkinElmer Envision® instrument with excitation at 320 nm and emission at 665 nm and 620 nm. The HTRF ratio (emission at 665 nm/620 nm*10,000) is inversely proportional to the amount of cAMP present and is converted to nM cAMP per well using a cAMP standard curve.
(Cyclic AMP is a second messenger, typically raised through Gs and lowered through Gi signalling.)

The nature of series [2]: Physical stability: fibril formation in Thioflavin T (ThT) assay with agitation. The following applies: 25° C., agitation; for Avr lag time (h): Na, MilliQ (8). Type of series: physicochemical. An outline of the steps: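 Read-out is continuous ThT fluorescence at 486 nm, with lag time taken where signal reaches 10% between pre- and post-transition baselines. Filtered samples (1, 5, 7.5 or 15 mg/ml; pH 7.4 phosphate buffer or NaOH-adjusted water) were stressed at 25° C. by orbital rotation at 300 rpm with one silica bead per well.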

Read-outs that look alike come from different tables or passages of the source. Starred links: 1 amine or outer side, 2 acyl side, 3 side chain; linkers in the order of their positions; H or OH if unused. Non-standard residues stand in square brackets, D forms with d. Residues, ends and D or L forms follow the SMILES beside them. Groups on a side chain read outwards from the residue. *: point of attachment. C16 diacid = O=C(O)CCCCCCCCCCCCCCC(=O)*; γGlu = O=C(O)[C@H](CCC(=O)[*:2])N[*:1]; Aib = CC(C)(N)C(=O)O Where only a bound is given, the exact number is not on record here.

For orientation: Kb means the affinity of an antagonist, worked out from how it opposes an agonist. Take `CC[C@H](C)[C@H](NC(=O)[C@H](CO)NC(=O)[C@H](Cc1ccc(O)cc1)NC(=O)[C@H](CC(=O)O)NC(=O)[C@H](CO)NC(=O)[C@@H](NC(=O)[C@H](Cc1ccccc1)NC(=O)[C@@H](NC(=O)CNC(=O)[C@@H](N)CCC(=O)O)[C@@H](C)O)[C@@H](C)CC)C(=O)N[C@@H](C)C(=O)N[C@@H](CCSC)C(=O)N[C@@H](CC(=O)O)C(=O)N[C@@H](CCCCN)C(=O)N[C@H](C(=O)N[C@@H](CCCCNC(=O)CCCCCCCCCCCCCCC(=O)O)C(=O)N[C@@H](CCC(N)=O)C(=O)N[C@@H](CCC(N)=O)C(=O)N[C@@H](CC(=O)O)C(=O)N[C@@H](Cc1ccccc1)C(=O)N[C@H](C(=O)N[C@@H](CCC(=O)O)C(=O)N[C@@H](Cc1c[nH]c2ccccc12)C(=O)N[C@@H](CC(C)C)C(=O)N[C@@H](CC(C)C)C(=O)N[C@@H](C)C(=O)N[C@@H](CCC(=O)O)C(=O)N[C@@H](CCCCN)C(=O)N1CCC[C@H]1C(=O)N[C@@H](CO)C(=O)N[C@@H](CO)C(=O)NCC(=O)N[C@@H](C)C(=O)N1CCC[C@H]1C(=O)N1CCC[C@H]1C(=O)N1CCC[C@H]1C(=O)N[C@@H](CO)C(=O)O)C(C)C)[C@@H](C)CC` [AT747] (H-EGTFISDYSIAMDKIK(C16 diacid)QQDFVEWLLAEKPSSGAPPPS-OH; N-terminus assumed): the Visual appearance result in series [1] (1 mg/ml, TFA, Phosphate (7.4)) is reported as “Clear”. This compound also showed a Kb on human GIP receptor of 14 nM. Further, in series [2] (1 mg/ml, TFA, Phosphate (7.4)), the “Avr lag time” value is <24 h.
As for `CC[C@H](C)[C@H](NC(=O)[C@H](CCCCN)NC(=O)[C@H](CCC(=O)O)NC(=O)[C@H](CC(C)C)NC(=O)C(C)(C)NC(=O)[C@@H](NC(=O)[C@H](CO)NC(=O)[C@H](Cc1ccc(O)cc1)NC(=O)[C@H](CCC(=O)O)NC(=O)[C@H](CO)NC(=O)[C@@H](NC(=O)[C@H](Cc1ccccc1)NC(=O)[C@@H](NC(=O)CNC(=O)[C@@H](N)CCC(=O)O)[C@@H](C)O)[C@@H](C)CC)[C@@H](C)CC)C(=O)N[C@@H](CCCCNC(=O)CC[C@H](NC(=O)CCCCCCCCCCCCCCC(=O)O)C(=O)O)C(=O)N[C@@H](CCC(N)=O)C(=O)N[C@@H](CCC(N)=O)C(=O)N[C@@H](CCC(=O)O)C(=O)N[C@@H](Cc1ccccc1)C(=O)N[C@H](C(=O)N[C@@H](CCC(=O)O)C(=O)N[C@@H](Cc1c[nH]c2ccccc12)C(=O)N[C@@H](CC(C)C)C(=O)N[C@@H](CC(C)C)C(=O)N[C@@H](C)C(=O)N[C@@H](CCC(N)=O)C(=O)N[C@@H](CCCCN)C(=O)N1CCC[C@H]1C(=O)N[C@@H](CO)C(=O)N[C@@H](CO)C(=O)NCC(=O)N[C@@H](C)C(=O)N1CCC[C@H]1C(=O)N1CCC[C@H]1C(=O)N1CCC[C@H]1C(=O)N[C@@H](CO)C(=O)O)C(C)C` [AT721] (H-EGTFISEYSI[Aib]LEKIK([γGlu-C16 diacid])QQEFVEWLLAQKPSSGAPPPS-OH; N-terminus assumed), the Visual appearance result is “Clear” in series [1] (7.5 mg/ml, Na, MilliQ (8)) and “Clear” in series [1] (15 mg/ml, Na, MilliQ (8)). For the same compound, on human GIP receptor (Table 2C, Gaddum equation, single antagonist dose, HEK-293 hGIPR, read-out: nM (Kb)), the Kb is 0.31 nM. The “Avr lag time (h)” value in series [2] (7.5 mg/ml) and in series [2] (15 mg/ml) was “fnd (Fnd = fibrils not detected within experiment time (96 hours) with agitation.)” throughout.
